Publication PMC10779086, “3-O-Methyltolcapone and Its Lipophilic Analogues Are Potent Inhibitors of Transthyretin Amyloidogenesis with High Permeability and Low Toxicity” (International Journal of Molecular Sciences, 2023)
Values joined by “and” are separate entries in the source; they are usually repeats but may differ in a detail not shown here. Equal entries are not always repeated.

Assays:
[1] = Caco-2 intestinal permeability; type: in vitro ADME, human; conditions: human; for efflux ratio at 60 min, 10 μM: Caco-2, pH 7.4, without inhibitor, read-out: Efflux Ratio (Papp BA/Papp AB); for Papp A→B at 60 min, 10 μM / Papp B→A at 60 min, 10 μM: Caco-2, pH 7.4
Experimental: (§1) Caco-2 cells (cod. HTB-37) were bought from ATCC (American Type Culture Collection, Rockville, MD, USA). Caco-2 cells were cultured for 21 days on a 24 trans-well plate to reach the right confluence and differentiate until the formation of the intestinal epithelium mimetic monolayer. The test substance permeability was measured in both directions (apical to basolateral [A→B] and basolateral to apical [B→A]) across the cell monolayer. The assay was carried out in HBSS transport medium at pH 7.4. Test substance at single concentration (10 μM) was tested in duplicate at one time point (60 min). Monolayer integrity of Caco-2 cells was evaluated by TEER measurements during the experiment and by Lucifer Yellow test after the incubation with the test compound. The concentrations of the test substance and/or reference controls were measured by LC-MS/MS.
(§2) When the inhibitor leads the efflux ratio to a significant reduction (>50%) or to unity, the test compound is classified as a probable substrate of that efflux transporter. As control, the modulation of the efflux ratio of a reference known substrate (Digoxin) was evaluated with or without the respectively inhibitors in every experiment. […] In parallel, mass balance (%) of recovered test substance was also determined. […] Outside these ranges the permeability data is not reliable.

[2] = system: HepG2 human liver cancer cell line; experiment: Cytotoxicity in HepG2 cells (ATP viability assay); type: cell-based; conditions: 48 h
Experimental: Compounds were dissolved at the concentration of 50 mM in DMSO.
DMSO normalisation at 1.0% was performed in each well.
Cell viability was evaluated by measuring ATP levels using CellTiter Glo (Promega Cat.n. G7570) according to manufacturer’s instructions.

[3] = plasma; cited from earlier work
TTR = TTR (Homo sapiens, UniProt P02766); experiment: Isothermal titration calorimetry (ITC), one-binding-site model; parameters: made in house; host or cells: E. coli BL21; ∆S: unit not given here; conditions: single-binding-site model, 25 °C; for Kd: pH 7.4, 5% DMSO
Experimental: At an absorbance value of 600 nm around 0.3, the temperature was shifted to 30 °C.
Data were fitted using the “one-binding-site model” of the Malvern version of ORIGIN v.7. The heat of binding (ΔH), the stoichiometry (n), entropy (ΔS) and the dissociation constant (Kd) were then calculated from plots of the heat evolved per mole of ligand injected versus the molar ratio of ligand to protein using the software provided by the vendor (Table 3). Sample preparation is detailed below. […] A 10 µM protein stock in 2× buffer was then prepared and diluted 1:1 with a 10% DMSO solution, to obtain a 5 µM TTR solution in 1× buffer A and 5% DMSO. Different protein concentrations (3–5 µM) assayed in the replicates were prepared accordingly, starting from a 2× protein solution in 2× buffer A. Each ligand was dissolved in 100% DMSO and a 2 mM stock solution in 100% DMSO was prepared. A 200 µM compound solution was obtained in 10% DMSO and diluted 1:1 with 2× buffer A, to obtain a 100 µM ligand solution to be used for the ITC assays (in 1× buffer A and 5% DMSO).

Caco-2 cells = experiment: Caco-2 intestinal permeability; type: in vitro ADME, human; conditions: A→B, relative to tolcapone
Experimental: as §1, §2

SMILES	recovery at 60 min, 10 µM ([1]; Caco-2, pH 7.4, A→B)	recovery at 60 min, 10 µM ([1]; Caco-2, pH 7.4, B→A)	efflux ratio at 60 min, 10 μM [1]	Papp A→B at 60 min, 10 μM [1]	Papp B→A at 60 min, 10 μM [1]	EC50 [2]	half-life [3]	n (stoichiometry of binding, ligand:TTR tetramer) (TTR)	∆H (TTR)	∆S (TTR)	Kd (TTR)	increase of permeability Papp value (A→B) compared to tolcapone (Caco-2 cells)	melting point
COc1cc(C(=O)c2ccc(C)cc2)cc([N+](=O)[O-])c1O [3-OMT, 3-O-methyltolcapone]	66 ± 4%	83 ± 8%	1.5	16 ± 2.9 ×10⁻⁶ cm/s	24.3 ± 3 ×10⁻⁶ cm/s	262 ± 20.7 µM	40.9 h	1.9 ± 0.2	-8.9 kcal/mol and -8.9 ± 0.3 kcal/mol	4.6 ± 0.5	0.033 ± 0.009 µM	–	–
COc1cc(C(=O)c2cc(C)cc(C)c2)cc([N+](=O)[O-])c1O [Compound 1, (4-Hydroxy-3-methoxy-5-nitrophenyl)-1-(3,5-dimethylphenyl)methanone]	64 ± 4%	77 ± 2%	1	24 ± 2.1 ×10⁻⁶ cm/s	23.1 ± 2.3 ×10⁻⁶ cm/s	410 ± 33 µM	–	1.8 ± 0.1	-11.5 kcal/mol and -11.5 ± 1.3 kcal/mol	−2.9 ± 0.9	0.071 ± 0.026 µM	2.5 fold	144 to 145 °C
COc1cc(C(=O)c2ccc(C)cc2C)cc([N+](=O)[O-])c1O [Compound 2, (4-Hydroxy-3-methoxy-5-nitrophenyl)-1-(2,4-dimethylphenyl)methanone]	69 ± 8%	80 ± 9%	1	25 ± 0.3 ×10⁻⁶ cm/s	26.8 ± 2.5 ×10⁻⁶ cm/s	216 ± 2.2 µM	–	2.1 ± 0.3	-10.5 kcal/mol and -10.5 ± 0.2 kcal/mol	−0.4 ± 0.1	0.025 ± 0.005 µM	2.5 fold	126 to 127 °C
